From paper PMC2730992 (Molecular and biochemical parasitology, 2009)

Experiments:
Tc AdoMetDC/Tb Prozyme = molecular target: T1, Tc AdoMetDC/Tb Prozyme (Trypanosoma cruzi, UniProt O76240); type: biochemical; settings: 5 mM putrescine; allosteric activator; pH 8.0, 37 °C
T1 sequence (O76240 1-85): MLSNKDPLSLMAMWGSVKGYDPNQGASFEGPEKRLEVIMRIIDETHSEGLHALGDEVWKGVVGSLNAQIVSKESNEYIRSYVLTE
T1 sequence (O76240 86-370): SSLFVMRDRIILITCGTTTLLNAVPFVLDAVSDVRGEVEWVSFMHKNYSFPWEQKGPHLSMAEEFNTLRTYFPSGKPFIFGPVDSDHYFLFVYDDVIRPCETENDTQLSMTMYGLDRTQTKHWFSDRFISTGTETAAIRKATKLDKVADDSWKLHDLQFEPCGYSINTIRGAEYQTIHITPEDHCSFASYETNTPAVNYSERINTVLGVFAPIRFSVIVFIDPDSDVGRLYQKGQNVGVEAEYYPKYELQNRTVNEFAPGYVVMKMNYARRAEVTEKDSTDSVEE
T1 sequence (A5HNV6 1-325 partner): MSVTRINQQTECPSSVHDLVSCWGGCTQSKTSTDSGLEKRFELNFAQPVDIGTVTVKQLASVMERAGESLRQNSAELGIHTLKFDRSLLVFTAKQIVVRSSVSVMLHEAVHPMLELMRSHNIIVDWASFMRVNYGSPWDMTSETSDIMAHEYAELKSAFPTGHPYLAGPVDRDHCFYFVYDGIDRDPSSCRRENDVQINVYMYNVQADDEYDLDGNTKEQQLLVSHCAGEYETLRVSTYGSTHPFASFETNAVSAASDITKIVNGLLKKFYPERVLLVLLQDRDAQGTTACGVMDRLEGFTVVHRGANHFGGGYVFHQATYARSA

Tb AdoMetDC/Tc Prozyme = molecular target: T2, Tb AdoMetDC/Tc Prozyme (Trypanosoma brucei, UniProt P50244); type: biochemical; settings: 5 mM putrescine; allosteric activator; pH 8.0, 37 °C
T2 sequence (P50244 1-85): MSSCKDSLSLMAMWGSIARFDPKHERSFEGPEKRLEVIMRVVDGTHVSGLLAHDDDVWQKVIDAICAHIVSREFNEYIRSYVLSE
T2 sequence (P50244 86-370): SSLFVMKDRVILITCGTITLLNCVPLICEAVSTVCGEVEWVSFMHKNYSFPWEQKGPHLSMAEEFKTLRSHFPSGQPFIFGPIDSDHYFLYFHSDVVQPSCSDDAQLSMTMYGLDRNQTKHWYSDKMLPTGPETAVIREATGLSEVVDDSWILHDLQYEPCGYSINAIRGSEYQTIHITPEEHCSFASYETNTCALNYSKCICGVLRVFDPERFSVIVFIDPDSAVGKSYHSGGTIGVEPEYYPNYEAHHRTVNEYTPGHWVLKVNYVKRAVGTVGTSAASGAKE
T2 sequence (Q4DQQ6 1-326 partner): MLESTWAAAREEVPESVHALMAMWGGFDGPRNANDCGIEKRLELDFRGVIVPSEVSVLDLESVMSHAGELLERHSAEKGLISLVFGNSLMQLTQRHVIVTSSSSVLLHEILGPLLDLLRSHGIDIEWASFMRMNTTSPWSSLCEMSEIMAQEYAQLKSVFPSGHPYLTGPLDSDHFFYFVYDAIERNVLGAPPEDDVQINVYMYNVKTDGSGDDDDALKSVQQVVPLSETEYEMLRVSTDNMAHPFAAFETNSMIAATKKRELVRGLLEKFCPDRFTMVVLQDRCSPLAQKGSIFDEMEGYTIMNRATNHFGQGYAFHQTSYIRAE

purified protein = substrate: C[S+](CC[C@H](N)C(=O)O)C[C@H]1O[C@@H](n2cnc3c(N)ncnc32)[C@H](O)[C@@H]1O; assay: purified protein; settings: pH 8.0; 37.0 °C

| Molecule | activation of AdoMet decarboxylation, 14CO2 trapping (Tc AdoMetDC/Tb Prozyme) | activation of AdoMet decarboxylation, 14CO2 trapping (Tb AdoMetDC/Tc Prozyme) | Km (purified protein) [µM] |
| --- | --- | --- | --- |
| NCCCCN [putrescine] | when putrescine was included, both cross-species heterodimers were further activated | when putrescine was included, both cross-species heterodimers were further activated | – |
| Tc AdoMetDC/Tb Prozyme (Trypanosoma cruzi) (protein) chain 1: MLSNKDPLSLMAMWGSVKGYDPNQGASFEGPEKRLEVIMRIIDETHSEGLHALGDEVWKGVVGSLNAQIVSKESNEYIRSYVLTE chain 2: SSLFVMRDRIILITCGTTTLLNAVPFVLDAVSDVRGEVEWVSFMHKNYSFPWEQKGPHLSMAEEFNTLRTYFPSGKPFIFGPVDSDHYFLFVYDDVIRPCETENDTQLSMTMYGLDRTQTKHWFSDRFISTGTETAAIRKATKLDKVADDSWKLHDLQFEPCGYSINTIRGAEYQTIHITPEDHCSFASYETNTPAVNYSERINTVLGVFAPIRFSVIVFIDPDSDVGRLYQKGQNVGVEAEYYPKYELQNRTVNEFAPGYVVMKMNYARRAEVTEKDSTDSVEE | – | – | 440 ± 14 |
